From US20260285850A1, “SUBSTITUTED OXAZOLIDINONES AND IMIDAZOLINONES AS HERBICIDES” (FMC CORPORATION, priority 2023, published 2026)

Columns and labels:
Type in all cases: in vivo
[1] = system: ragweed (common ragweed, Ambrosia artemisiifolia); experiment: Test A postemergence application, visual injury rating 0-100
How it was run: (§1)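 Plants were grown in a loam soil-sand blend and treated with test chemical in a non-phytotoxic solvent mixture containing surfactant, either sprayed on soil preemergence or applied postemergence to 2-10 cm plants. After 10 days in a greenhouse, injury was scored visually against untreated controls, 0 meaning no effect and 100 complete control.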

[2] = system: horseweed (Erigeron canadensis); experiment: as above
How it was run: as §1

[3] = system: green foxtail (Setaria viridis); experiment: as above
How it was run: as §1

[4] = system: wheat (Triticum aestivum); experiment: as above
How it was run: as §1

kochia (Bassia scoparia) [5] = experiment: as above
How it was run: as §1

[6] = system: barnyardgrass (Echinochloa crus-galli); experiment: as above
How it was run: as §1

corn (Zea mays) [7] = experiment: as above
How it was run: as §1

[8] = system: palmer (palmer amaranth, palmer pigweed, Amaranthus palmeri); experiment: as above
How it was run: as §1

[9] = system: blackgrass (Alopecurus myosuroides); experiment: as above
How it was run: as §1

[10] = system: galium (catchweed bedstraw, Galium aparine); experiment: as above
How it was run: as §1

soybean (Glycine max) [11] = experiment: as above
How it was run: as §1

[12] = system: ryegrass, Italian (italian ryegrass, Lolium multiflorum); experiment: as above
How it was run: as §1

[13] = system: oat, wild (wild oat, Avena fatua); experiment: as above
How it was run: as §1

[14] = system: barnyardgrass (Echinochloa crusgalli); experiment: Test B flooded paddy test, visual plant response rating 0-100; settings: 250 g ai/ha, Flood, applied to paddy water, evaluated after 13 days
How it was run: (§2)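 2-leaf plants; flood 3 cm over soil; compound dosed into paddy water; depth kept constant; greenhouse 13 d; visual scoring vs controls. Dash = no result.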

[15] = system: sedge, umbrella (small-flower umbrella sedge, Cyperus difformis); experiment: as above; settings: 250 g ai/ha, Flood, applied to paddy water, evaluated after 13 days
How it was run: as §2

[16] = system: ducksalad (Heteranthera limosa); experiment: as above; settings: 250 g ai/ha, Flood, applied to paddy water, evaluated after 13 days
How it was run: as §2

rice (Oryza sativa) = experiment: as above; settings: 250 g ai/ha, Flood, applied to paddy water, evaluated after 13 days
How it was run: as §2

[17] = system: ragweed (common ragweed, Ambrosia artemisiifolia); experiment: Test A preemergence soil spray, visual injury rating 0-100; settings: 10 days
How it was run: as §1

[18] = system: green foxtail (Setaria viridis); experiment: as above; settings: 10 days
How it was run: as §1

[19] = system: wheat (Triticum aestivum); experiment: as above; settings: 10 days
How it was run: as §1

kochia (Bassia scoparia) [20] = experiment: as above; settings: 10 days
How it was run: as §1

[21] = system: barnyardgrass (Echinochloa crus-galli); experiment: as above; settings: 10 days
How it was run: as §1

corn (Zea mays) [22] = experiment: as above; settings: 10 days
How it was run: as §1

[23] = system: palmer (palmer amaranth, palmer pigweed, Amaranthus palmeri); experiment: as above; settings: 10 days
How it was run: as §1

[24] = system: blackgrass (Alopecurus myosuroides); experiment: as above; settings: 10 days
How it was run: as §1

soybean (Glycine max) [25] = experiment: as above; settings: 10 days
How it was run: as §1

[26] = system: ryegrass, Italian (italian ryegrass, Lolium multiflorum); experiment: as above; settings: 10 days
How it was run: as §1

[27] = system: oat, wild (wild oat, Avena fatua); experiment: as above; settings: 10 days
How it was run: as §1

[28] = 62 g ai/ha, postemergence, 10 days, 0 = no effect, 100 = complete control
[29] = Postemergence, 16 g ai/ha, greenhouse 10 days, 0 no effect, 100 complete control
[30] = 62 g ai/ha, 0 = no effect, 100 = complete control

SMILES: C=CC1(C(=O)NC2C=CC(C(=O)O)C2)CN(c2cc(F)cc(F)c2)C(=O)O1 (mixture of isomers) [Compound 166]
- Ragweed plant response rating (0-100) [1, 28]: 70
- Ragweed plant response rating (0 to 100 scale) [1, 29]: 40
- Horseweed plant response rating (0-100) [2, 28]: 80
- Horseweed plant response rating (0 to 100 scale) [2, 29]: 50
- Foxtail, Green plant response rating (0-100) [3, 28]: 90
- Foxtail, Green plant response rating (0 to 100 scale) [3, 29]: 30
- Wheat plant response rating (0-100) [4, 28]: 90
- Wheat plant response rating (0 to 100 scale) [4, 29]: 90
- Kochia plant response rating (0-100) (kochia (Bassia scoparia) [5]; [28]): 80
- Kochia plant response rating (0 to 100 scale) (kochia (Bassia scoparia) [5]; [29]): 80
- Barnyardgrass plant response rating (0-100) [6, 28]: 100
- Barnyardgrass plant response rating (0 to 100 scale) [6, 29]: 90
- Corn plant response rating (0-100) (corn (Zea mays) [7]; [28]): 100
- Corn plant response rating (0 to 100 scale) (corn (Zea mays) [7]; [29]): 90
- Pigweed, Palmer plant response rating (0-100) [8, 28]: 90
- Pigweed, Palmer plant response rating (0 to 100 scale) [8, 29]: 90
- Blackgrass plant response rating (0-100) [9, 28]: 90
- Blackgrass plant response rating (0 to 100 scale) [9, 29]: 70
- Galium plant response rating (0-100) [10, 28]: 90
- Galium plant response rating (0 to 100 scale) [10, 29]: 70
- Soybean plant response rating (0-100) (soybean (Glycine max) [11]; [28]): 100
- Soybean plant response rating (0 to 100 scale) (soybean (Glycine max) [11]; [29]): 80
- Ryegrass, Italian plant response rating (0-100) [12, 28]: 90
- Ryegrass, Italian plant response rating (0 to 100 scale) [12, 29]: 60
- Oat, Wild plant response rating (0-100) [13, 28]: 90
- Oat, Wild plant response rating (0 to 100 scale) [13, 29]: 90
- Plant response rating, Barnyardgrass (0 to 100 scale, 0 is no effect and 100 is complete control) [14]: 95
- Plant response rating, Sedge, Umbrella (0 to 100 scale, 0 is no effect and 100 is complete control) [15]: 95
- Plant response rating, Ducksalad (0 to 100 scale, 0 is no effect and 100 is complete control) [16]: 85
- Plant response rating, Rice (0 to 100 scale, 0 is no effect and 100 is complete control) (rice (Oryza sativa)): 80
- Ragweed plant response rating ([17]; 16 g ai/ha, 0 to 100 scale): 0
- Ragweed plant response rating (0-100) [17, 30]: 30
- Foxtail, Green plant response rating ([18]; 16 g ai/ha, 0 to 100 scale): 0
- Foxtail, Green plant response rating (0-100) [18, 30]: 50
- Wheat plant response rating ([19]; 16 g ai/ha, 0 to 100 scale): 60
- Wheat plant response rating (0-100) [19, 30]: 90
- Kochia plant response rating (kochia (Bassia scoparia) [20]; 16 g ai/ha, 0 to 100 scale): 0
- Kochia plant response rating (0-100) (kochia (Bassia scoparia) [20]; [30]): 60
- Barnyardgrass plant response rating ([21]; 16 g ai/ha, 0 to 100 scale): 40
- Barnyardgrass plant response rating (0-100) [21, 30]: 100
- Corn plant response rating (corn (Zea mays) [22]; 16 g ai/ha, 0 to 100 scale): 20
- Corn plant response rating (0-100) (corn (Zea mays) [22]; [30]): 60
- Pigweed, Palmer plant response rating ([23]; 16 g ai/ha, 0 to 100 scale): 20
- Pigweed, Palmer plant response rating (0-100) [23, 30]: 100
- Blackgrass plant response rating ([24]; 16 g ai/ha, 0 to 100 scale): 10
- Blackgrass plant response rating (0-100) [24, 30]: 70
- Soybean plant response rating (soybean (Glycine max) [25]; 16 g ai/ha, 0 to 100 scale): 20
- Soybean plant response rating (0-100) (soybean (Glycine max) [25]; [30]): 90
- Ryegrass, Italian plant response rating ([26]; 16 g ai/ha, 0 to 100 scale): 0
- Ryegrass, Italian plant response rating (0-100) [26, 30]: 90
- Oat, Wild plant response rating ([27]; 16 g ai/ha, 0 to 100 scale): 0
- Oat, Wild plant response rating (0-100) [27, 30]: 60
